Columns and labels:
Rattus norvegicus [1] = assay: Compound was evaluated for the antihypertensive activity at a dose of 45 umol/kg given orally; No significant effect on blood pressure.; format: functional, organism-based
Rattus norvegicus [2] = organism: Rattus norvegicus; assay: Vasorelaxant potency by relaxation of the methoxamine contracted rat aorta; format: functional
Cavia porcellus [3] = organism: Cavia porcellus; assay: Percent inhibition of inward calcium current by 100 uM of the compound; format: functional; parameters: scale not given: the % may be the effect or the level left
Cavia porcellus [4] = organism: Cavia porcellus; assay: Percent inhibition of inward calcium current by 10 uM of the compound; format: functional; parameters: scale not given: the % may be the effect or the level left
Cavia porcellus [5] = organism: Cavia porcellus; assay: Percent inhibition of inward calcium current by 50 uM of the compound; format: functional; parameters: scale not given: the % may be the effect or the level left
Rattus norvegicus [6] = assay: The compound was evaluated for the antihypertensive activity at a dose of 45 umol/kg given orally; format: functional
Rattus norvegicus [7] = assay: Compound was evaluated for the antihypertensive activity at a dose of 45 umol/kg given orally; No significant effect on blood pressure; format: functional, organism-based
Rattus norvegicus [8] = assay: The compound was evaluated for the antihypertensive activity at a dose of 45 umol/kg given orally.; format: functional

`CC1(C)Oc2c(c(=O)n(Cc3ccccc3)c3ccccc23)[C@@H](N2CCCC2=O)[C@@H]1O` was tested, and the IC50 (Rattus norvegicus [1]) was “Not Active”, the IC50 (Rattus norvegicus [2]) was 0.44 µM and the Activity (Cavia porcellus [3]) was 55%. The Activity (Cavia porcellus [4]) was 30% and the Activity (Cavia porcellus [5]) was 46%.
`CC1(C)Oc2ccc(C#N)cc2[C@@H](N2CCCC2=O)[C@@H]1O` [CROMAKALIM] gave an Activity (Rattus norvegicus [6]) of 63%.
In the case of `COc1ccc([C@@H]2Sc3ccccc3N(CCN(C)C)C(=O)[C@@H]2OC(C)=O)cc1` [DILTIAZEM], the IC50 (Rattus norvegicus [2]) is reported as 2.38 µM and the IC50 (Rattus norvegicus [7]) is reported as “Not Active”.
`COC(=O)C1=C(C)NC(C)=C(C(=O)OC)C1c1ccccc1[N+](=O)[O-]` [NIFEDIPINE] was tested, and the IC50 (Rattus norvegicus [2]) was 0.004 µM and the Activity (Rattus norvegicus [8]) was 33%.

Source: ChEMBL document CHEMBL1126367, “The discovery of a novel calcium channel blocker related to the structure of potassium channel opener cromakalim” (Bioorg Med Chem Lett, 1992)
